Data published in US20230263851A1, “PROTECTIVE FORMULATIONS” (priority 2022, published 2023).

Test system: upside-down jellyfish, family Cassiopeidae
Assay: In vivo field study: perceived stinging sensation after contact with upside-down jellyfish
Conditions: for Sting score, Left calf: skin location left calf; for Average Sting Score: average over tested skin locations; for Sting score, Lower arm, left: perceived sting: 0 no sting, compound in SPF15 TeekaTan oil-in-water sunscreen base, skin location lower arm; for Reduction of the stinging sensation (in words): summary of the field study; for Sting score, Upper arm, left: skin location upper arm
Protocol: An in-vivo field study was performed using upside-down jellyfish, family Cassiopeidae. Rubidium iodide and dl-menthol were compared to lanthanide salts and another alkali salt, cesium iodide, for their ability to reduce the dermal irritation following contact with stinging Cnidaria. The base formulation was a commercial SPF15 “TeekaTan™” chemical oil-in-water sunscreen. The null was bare skin. The test subjects reported their perceived stinging sensation from the venomous cassiosomes as no sting (score 0), mild sting (score 1), definite sting (score 2).

[1] = 0 no sting, 1 mild sting, 2 definite sting, SPF15 sunscreen base

SMILES | Sting score, Left calf [1] | Sting score, Left cheek (face) (0 no sting, 1 mild sting, 2 definite sting, SPF15 sunscreen base, skin location left cheek (face)) | Sting score, Left side of chest, underarm (0 no sting, 1 mild sting, 2 definite sting, SPF15 sunscreen base, skin location left side of chest, underarm) | Sting score, Left side of lips, upper and lower (0 no sting, 1 mild sting, 2 definite sting, SPF15 sunscreen base, skin location left side of lips, upper and lower) | Sting score, Right arm joint (0 no sting, 1 mild sting, 2 definite sting, SPF15 sunscreen base, skin location right arm joint) | Sting score, Right cheek (face) (0 no sting, 1 mild sting, 2 definite sting, SPF15 sunscreen base, skin location right cheek (face)) | Sting score, Right side of chest, underarm (0 no sting, 1 mild sting, 2 definite sting, SPF15 sunscreen base, skin location right side of chest, underarm) | Sting score, Stomach (0 no sting, 1 mild sting, 2 definite sting, SPF15 sunscreen base, skin location stomach) | Average Sting Score [1] | Sting score, Lower arm, left (1 mild sting, 2 definite sting) | Reduction of the stinging sensation (in words) | Sting score, Upper arm, left [1] | Sting score, Left arm joint (0 no sting, 1 mild sting, 2 definite sting, SPF15 sunscreen base, skin location left arm joint)
CC(C)[C@@H]1CC[C@@H](C)C[C@H]1O (racemic) [DL-Menthol, DL menthol] | 0 | 0 | 0 | 0 | 0.75 | 0 | 0 | 0 | 0.23 | 0 | second most effective compound tested |  | 
[Cs+].[I-] [CsI, cesium iodide, reference compound] |  |  |  |  |  |  |  |  | 2.00 |  | did not appreciably reduce the stinging sensation | 2 | 
[Cl][Nd]([Cl])[Cl] [NdCl3, reference compound] |  |  |  |  |  |  |  |  | 2.00 | 2 |  |  | 
[Cl][Pr]([Cl])[Cl] [PrCl3, reference compound] |  |  |  |  |  |  |  |  | 1.00 | 2 |  | 0 | 
[I-].[Rb+] [RuI, rubidium iodide] | 0 |  |  |  |  |  |  |  | 0.00 | 0 |  | 0 | 0
